Results reported in the supplement of paper PMC5908809.

Columns and labels:
[1] = system: normal NK cells expanded with K562-aAPC; assay: drug sensitivity score (DSS) (DSS units); higher = more sensitive; extreme values may be limits of the assay; conditions: 72 h; IL-2 2.5 ng/mL
Description: (§1)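 Drug sensitivity and resistance testing on K562-aAPC-expanded normal NK cells: 5 concentrations (10-fold steps over a 10,000-fold range), 72 h at 37 °C, viability by CellTiter-Glo normalised to DMSO and benzethonium chloride controls; DSS from the fitted curve.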

SNK-6 (IL-2 2.5 ng/mL) [2] = assay: percent inhibition of viability; higher = more inhibition; conditions: 72 h
[3] = system: normal primary NK cells, pool 3 (3 donors) (IL-2 2.5 ng/mL); assay: as above; conditions: 72 h
IMC-1 (IL-2 20 ng/mL) [4] = assay: as above; conditions: 72 h
KHYG-1 (IL-2 2.5 ng/mL) [5] = assay: as above; conditions: 72 h
DERL-7 (IL-2 2.5 ng/mL) [6] = assay: as above; conditions: 72 h
[7] = system: normal primary NK cells, pool 1 (3 donors) (IL-2 2.5 ng/mL); assay: as above; conditions: 72 h
NKL (IL-2 2.5 ng/mL) [8] = assay: as above; conditions: 72 h
[9] = system: normal primary NK cells, pool 1 (3 donors), resting (IL-2 0 ng/mL); assay: as above; conditions: 72 h
YT (IL-2 2.5 ng/mL) [10] = assay: as above; conditions: 72 h
[11] = system: normal primary NK cells, pool 2 (3 donors) (IL-2 2.5 ng/mL); assay: as above; conditions: 72 h
KAI3 (IL-2 2.5 ng/mL) [12] = assay: as above; conditions: 72 h
NK-YS (IL-2 2.5 ng/mL) [13] = assay: as above; conditions: 72 h
NK-92 (IL-2 2.5 ng/mL) [14] = assay: as above; conditions: 72 h
[15] = system: normal NK cells expanded with K562-aAPC; assay: as above; conditions: 72 h, IL-2 2.5 ng/mL
Description: as §1

SNK-6 (IL-2 2.5 ng/mL) [16] = assay: drug sensitivity score (DSS) (DSS units); higher = more sensitive; extreme values may be limits of the assay; conditions: 72 h
[17] = system: normal primary NK cells, pool 3 (3 donors) (IL-2 2.5 ng/mL); assay: as above; conditions: 72 h
IMC-1 (IL-2 20 ng/mL) [18] = assay: as above; conditions: 72 h
KHYG-1 (IL-2 2.5 ng/mL) [19] = assay: as above; conditions: 72 h
DERL-7 (IL-2 2.5 ng/mL) [20] = assay: as above; conditions: 72 h
[21] = system: normal primary NK cells, pool 1 (3 donors) (IL-2 2.5 ng/mL); assay: as above; conditions: 72 h
NKL (IL-2 2.5 ng/mL) [22] = assay: as above; conditions: 72 h
[23] = system: normal primary NK cells, pool 1 (3 donors), resting (IL-2 0 ng/mL); assay: as above; conditions: 72 h
YT (IL-2 2.5 ng/mL) [24] = assay: as above; conditions: 72 h
[25] = system: normal primary NK cells, pool 2 (3 donors) (IL-2 2.5 ng/mL); assay: as above; conditions: 72 h
KAI3 (IL-2 2.5 ng/mL) [26] = assay: as above; conditions: 72 h
NK-YS (IL-2 2.5 ng/mL) [27] = assay: as above; conditions: 72 h
NK-92 (IL-2 2.5 ng/mL) [28] = assay: as above; conditions: 72 h

Cc1cc(Nc2cc(N3CCN(C)CC3)nc(/C=C/c3ccccc3)n2)n[nH]1 [ENMD-2076] (max concentration tested 10000 nM)
Conditions | drug sensitivity score
DERL-7 (IL-2 2.5 ng/mL) [20] | 15
IMC-1 (IL-2 20 ng/mL) [18] | 14.2
KAI3 (IL-2 2.5 ng/mL) [26] | 18.1
KHYG-1 (IL-2 2.5 ng/mL) [19] | 15.4
NK-92 (IL-2 2.5 ng/mL) [28] | 11.8
NK-YS (IL-2 2.5 ng/mL) [27] | 15.4
NKL (IL-2 2.5 ng/mL) [22] | 14
SNK-6 (IL-2 2.5 ng/mL) [16] | 12.2
YT (IL-2 2.5 ng/mL) [24] | 10.1
[1] | 12.9
[17] | 7.76
[21] | 8.98
[23] | 7.17
[25] | 9.3

percent inhibition of viability [%]
Conditions | 1 nM | 10 nM | 100 nM | 1000 nM | 10000 nM
DERL-7 (IL-2 2.5 ng/mL) [6] | -3.97 | 1.55 | 8.93 | 73.3 | 100
IMC-1 (IL-2 20 ng/mL) [4] | 5.76 | 6.97 | 6.68 | 69 | 99.3
KAI3 (IL-2 2.5 ng/mL) [12] | 11.4 | 13.8 | 24.2 | 81.2 | 103
KHYG-1 (IL-2 2.5 ng/mL) [5] | 3.13 | 4.35 | 5.27 | 79.3 | 103
NK-92 (IL-2 2.5 ng/mL) [14] | 11.8 | 8.87 | 7.47 | 52.2 | 100
NK-YS (IL-2 2.5 ng/mL) [13] | 4 | 7.48 | 10.6 | 76.2 | 84.6
NKL (IL-2 2.5 ng/mL) [8] | 2.47 | 5.63 | 17.7 | 61.2 | 96.1
SNK-6 (IL-2 2.5 ng/mL) [2] | 5.5 | 2.27 | -27.8 | 68.5 | 79.8
YT (IL-2 2.5 ng/mL) [10] | 5.28 | 5.36 | 3.17 | 31.5 | 101
[3] | -2.94 | -6.14 | -2.82 | 14.7 | 96.1
[7] | -3.71 | -10.8 | -1.53 | 25 | 93.9
[9] | -0.34 | -9.97 | -7.43 | 16.7 | 80.9
[11] | -1.71 | 3 | 0.94 | 31 | 89.3
[15] | 2.38 | -3.79 | 7 | 60.5 | 99.8

C#Cc1cccc(Nc2ncnc3cc(OCCOC)c(OCCOC)cc23)c1 [Erlotinib] (max concentration tested 10000 nM)
Conditions | drug sensitivity score
DERL-7 (IL-2 2.5 ng/mL) [20] | 2.71
IMC-1 (IL-2 20 ng/mL) [18] | 1.94
KAI3 (IL-2 2.5 ng/mL) [26] | 6.03
KHYG-1 (IL-2 2.5 ng/mL) [19] | 4.03
NK-92 (IL-2 2.5 ng/mL) [28] | 7.75
NK-YS (IL-2 2.5 ng/mL) [27] | 1.63
NKL (IL-2 2.5 ng/mL) [22] | 3.76
SNK-6 (IL-2 2.5 ng/mL) [16] | 5.2
YT (IL-2 2.5 ng/mL) [24] | 4.27
[1] | 4.14
[17] | 0.89
[21] | 0.64
[23] | 2.81
[25] | 2.92

percent inhibition of viability [%]
Conditions | 1 nM | 10 nM | 100 nM | 1000 nM | 10000 nM
DERL-7 (IL-2 2.5 ng/mL) [6] | 0.1 | -2.35 | -1.33 | 1.39 | 48.4
IMC-1 (IL-2 20 ng/mL) [4] | 1.33 | 9.48 | 7.46 | 12.3 | 22.8
KAI3 (IL-2 2.5 ng/mL) [12] | 1.13 | 8.32 | -5.25 | 20 | 58.5
KHYG-1 (IL-2 2.5 ng/mL) [5] | 3.49 | 6.34 | 8.19 | 9.39 | 47.6
NK-92 (IL-2 2.5 ng/mL) [14] | 9.74 | 4.56 | 24.3 | 25.9 | 43.1
NK-YS (IL-2 2.5 ng/mL) [13] | 1.58 | 1.15 | 0.89 | 5.14 | 24.1
NKL (IL-2 2.5 ng/mL) [8] | 5.31 | 4.23 | 11.4 | 14.5 | 38.5
SNK-6 (IL-2 2.5 ng/mL) [2] | 7.98 | 8.62 | 18.3 | 17.6 | 32.2
YT (IL-2 2.5 ng/mL) [10] | 8.58 | 6.57 | 10.3 | 17.4 | 38.6
[3] | -5.26 | -4.35 | 6.24 | -3.65 | 27.2
[7] | 0.75 | -3.53 | 2.15 | -7.62 | 24.8
[9] | -2.01 | -10.5 | -8.04 | -1.92 | 55.7
[11] | -6.62 | -1.77 | 13.4 | 4.86 | 41.7
[15] | 0.68 | 3.68 | 2.85 | 12.2 | 44.6

Cc1nc(C(=O)NCC(=O)O)c(O)c2ccc(Oc3ccccc3)cc12 [FG-4592] (max concentration tested 10000 nM)
Conditions | drug sensitivity score
DERL-7 (IL-2 2.5 ng/mL) [20] | 0
IMC-1 (IL-2 20 ng/mL) [18] | 0.7
KAI3 (IL-2 2.5 ng/mL) [26] | 0.42
KHYG-1 (IL-2 2.5 ng/mL) [19] | 1
NK-92 (IL-2 2.5 ng/mL) [28] | 1.18
NK-YS (IL-2 2.5 ng/mL) [27] | 1.72
NKL (IL-2 2.5 ng/mL) [22] | 0.76
SNK-6 (IL-2 2.5 ng/mL) [16] | 1.59
YT (IL-2 2.5 ng/mL) [24] | 0
[1] | 0.37
[17] | 0
[21] | 0
[23] | 0
[25] | 0

percent inhibition of viability [%]
Conditions | 1 nM | 10 nM | 100 nM | 1000 nM | 10000 nM
DERL-7 (IL-2 2.5 ng/mL) [6] | -0.63 | 3.45 | 4.49 | 0.12 | 6.99
IMC-1 (IL-2 20 ng/mL) [4] | -3.51 | -1.09 | 1.25 | -1.57 | 22.9
KAI3 (IL-2 2.5 ng/mL) [12] | 1.56 | -2.99 | 1.6 | -0.39 | 17.9
KHYG-1 (IL-2 2.5 ng/mL) [5] | 0.18 | -1.43 | 2.3 | 3.63 | 19.2
NK-92 (IL-2 2.5 ng/mL) [14] | -0.86 | -2.06 | 10.9 | 12.5 | 8.29
NK-YS (IL-2 2.5 ng/mL) [13] | -2.71 | -1.91 | 3.2 | 3.83 | 27.3
NKL (IL-2 2.5 ng/mL) [8] | -14 | -13 | -11.3 | -0.19 | 22.6
SNK-6 (IL-2 2.5 ng/mL) [2] | 3.91 | -11.4 | 5.11 | 2.73 | 28
YT (IL-2 2.5 ng/mL) [10] | 1.14 | -2.12 | -1.6 | -8.84 | 8.38
[3] | -2.12 | -3.88 | -1.26 | 5.12 | 5.24
[7] | 0.46 | 1.21 | -8.95 | -4.43 | -4.71
[9] | 5.05 | -14.3 | 2.92 | -12.2 | -4.7
[11] | -11.8 | -5.39 | -6.37 | 1.43 | 10.4
[15] | -0.43 | -0.13 | -0.05 | 6.19 | 12.6

CC(C)C(=O)Nc1ccc([N+](=O)[O-])c(C(F)(F)F)c1 [Flutamide] (max concentration tested 10000 nM)
Conditions | drug sensitivity score
DERL-7 (IL-2 2.5 ng/mL) [20] | 0
IMC-1 (IL-2 20 ng/mL) [18] | 0.02
KAI3 (IL-2 2.5 ng/mL) [26] | 0
KHYG-1 (IL-2 2.5 ng/mL) [19] | 0
NK-92 (IL-2 2.5 ng/mL) [28] | 2.07
NK-YS (IL-2 2.5 ng/mL) [27] | 0
NKL (IL-2 2.5 ng/mL) [22] | 0
SNK-6 (IL-2 2.5 ng/mL) [16] | 0
YT (IL-2 2.5 ng/mL) [24] | 1.25
[1] | 0
[17] | 0
[21] | 0
[23] | 0
[25] | 0

percent inhibition of viability [%]
Conditions | 1 nM | 10 nM | 100 nM | 1000 nM | 10000 nM
DERL-7 (IL-2 2.5 ng/mL) [6] | 0.26 | 11.3 | -2.83 | 6.87 | 2.11
IMC-1 (IL-2 20 ng/mL) [4] | -0.8 | -1.46 | -1.68 | -2.71 | 12.2
KAI3 (IL-2 2.5 ng/mL) [12] | -0.84 | -1.39 | -3.89 | -2.15 | -17.5
KHYG-1 (IL-2 2.5 ng/mL) [5] | -7.32 | -1.75 | -9.49 | -4.37 | -1.22
NK-92 (IL-2 2.5 ng/mL) [14] | -9.52 | -2.4 | -7.94 | 12.1 | 22.5
NK-YS (IL-2 2.5 ng/mL) [13] | -0.08 | -3.58 | -2.41 | -5.97 | 2.23
NKL (IL-2 2.5 ng/mL) [8] | -6.29 | 8.8 | -0.67 | 5.38 | -13.1
SNK-6 (IL-2 2.5 ng/mL) [2] | 21.7 | 46.8 | -5.11 | 31.3 | 24.2
YT (IL-2 2.5 ng/mL) [10] | -7.4 | 6 | -4.1 | 6.56 | 19.1
[3] | -0.96 | 0.66 | 3.21 | -0.91 | 1.69
[7] | -3.89 | -10.2 | -4.34 | -7.61 | -4.01
[9] | -8.17 | -16.6 | 6.26 | -12.5 | 8.25
[11] | 7.09 | -4.46 | -3.61 | -2.09 | 6.81
[15] | -8.49 | -7.43 | -8.84 | -8.3 | -13.9
